Absorption maximum data for 50 molecules are collected here from the Deep4Chem optical property database.

The data set can be described thus: solvent given as SMILES.

Each structure is given as a SMILES string.

Where the note is “in C1CCOC1”, `O=C1/C(=C2\Nc3cc4ccc5cccc6ccc(c3C2=O)c4c56)Nc2cc3ccc4cccc5ccc(c21)c3c45` displayed an absorption maximum of 687 nm.

Under “in ClCCl”, `CCCCN(CCCC)c1ccc2c#cc3cc4c#cc5ccc(C(F)(F)F)cc5c#cc#cc5cc(N(CCCC)CCCC)ccc5c#cc4cc3c#cc3ccc(C(F)(F)F)cc3c#cc#cc2c1` gave an absorption maximum of 472 nm.

As to `CC(C)[Si](C#Cc1c2cc3ccccc3cc2c(C#Cc2ccc(F)cc2)c2cc3ccccc3cc12)(C(C)C)C(C)C`, the absorption maximum (in ClCCl) was determined as 651 nm.

`Cc1ccc(C2=C3C=CC(C#Cc4ccccc4)=[N+]3[B-](F)(F)n3c(Cl)ccc32)cc1` displayed an absorption maximum (in C1CCCCC1) of 564 nm; an absorption maximum (in C1CCOC1) of 560 nm; an absorption maximum (in C1COCCO1) of 562 nm; an absorption maximum (in CCOC(C)=O) of 558 nm; an absorption maximum (in CO) of 556 nm; an absorption maximum (in Cc1ccccc1) of 566 nm. For the setting “in ClC(Cl)Cl”, this molecule showed an absorption maximum of 564 nm.

Take `C[n+]1ccn(CCCCc2ccc3c(c2)c2ccccc2n3-c2cc(C#N)c(C#N)cc2-n2c3ccccc3c3cc(CCCCn4cc[n+](C)c4)ccc32)c1`: for the setting “in CC#N”, the absorption maximum was 368.93 nm.

In turn, `ClP1(Cl)=N[P@](Cl)(Oc2ccc3ccc4cccc5ccc2c3c45)=N[P@@](Cl)(Oc2ccc3ccc4cccc5ccc2c3c45)=N1` registered an absorption maximum (in ClCCl) of 343 nm.

Under “in C1CCOC1”, `c1ccc(-c2ccc(-c3ccccc3)s2)cc1` yielded an absorption maximum of 341 nm.

Take `COc1cc(OC)cc(C2=C3C(C)=C(I)C(C)=[N+]3[B-](F)(F)n3c(/C=C/c4c[nH]c5ccc([N+](=O)[O-])cc45)c(I)c(C)c32)c1`: the absorption maximum (in C1CCOC1) stood at 612 nm, the absorption maximum (in CS(C)=O) was found to be 622 nm and the absorption maximum (in ClCCl) worked out at 606 nm.

`F[B-]1(F)OC(c2cccc(Br)c2)=Cc2c3ccccc3cc[n+]21`: under “in ClC(Cl)Cl”, the absorption maximum came to 399.5 nm.

With `C(=C\c1ccc2ccccc2c1)/c1ccc(N(c2ccccc2)c2ccccc2)cc1`, the absorption maximum came to 371 nm (in CC#N) and 371 nm (in CCCCCC).

Take `COc1cc2c(cc1/C=C/C1=CC(=C(C#N)C#N)CC(C)(C)C1)c1ccccc1n2C`: the absorption maximum is on record as 475 nm (in C1CCOC1); 477 nm (in CC#N); 479 nm (in CCO); 462 nm (in CCOC(C)=O); 484 nm (in CN(C)C=O); 489 nm (in CS(C)=O). For the same molecule, the absorption maximum (in Cc1ccccc1) amounted to 468 nm, the absorption maximum (in ClC(Cl)Cl) worked out at 485 nm and the absorption maximum (in ClCCl) stood at 478 nm.

For the setting “in C1CCOC1”, `Cc1ccc(-c2cnc3nn4ccccc4c3n2)cc1` returned an absorption maximum of 400 nm.

The molecule `CC(C)(C)c1ccc(-c2ccc(C(C)(C)C)cc2)cc1` yielded an absorption maximum (in C1CCCCC1) of 256 nm.

As to `COC(=O)C(NC(=O)CCNc1cccc2ccccc12)C(C)C` (centres undefined), the absorption maximum (in CCO) came to 330 nm.

On to `O=C1CC(=O)Nc2cc(Cl)ccc2N1`, for which the absorption maximum (in CS(C)=O) is 298 nm.

Consider `CCCCOc1ccc(-c2oc3cc4n(c3c2-c2ccc(OCCCC)cc2)[B-](F)(F)[N+]2=Cc3cc5oc(-c6ccc(OCCCC)cc6)c(-c6ccc(OCCCC)cc6)c5n3[B-](F)(F)[N+]2=C4)cc1`, for which the absorption maximum by setting is: (in C1CCOC1) 596 nm; (in CN(C)C=O) 593 nm; (in CS(C)=O) 594 nm; (in Cc1ccccc1) 608 nm; (in ClC(Cl)Cl) 610 nm; (in ClCCl) 606 nm.

As for `COC(=O)c1cc(=O)n(C)c2cc(-c3cc(OC)c(OC)c(OC)c3)sc12`, the absorption maximum (in CC#N) turned out to be 398 nm and the absorption maximum (in ClCCl) is 400 nm.

With `O=C(N/N=C/c1ccccc1O)c1cccc2ccccc12`, the absorption maximum by setting is: (in C1CCOC1) 334 nm; (in CC#N) 332 nm; (in CC(C)=O) 343 nm; (in CCO) 400 nm; (in CN(C)C=O) 395 nm; (in CS(C)=O) 329 nm. This molecule also came in with an absorption maximum (in ClCCl) of 328 nm.

`COc1ccc(C2CC(=O)Oc3c2c2nc4ccccc4nc2c2ccccc32)cc1` (centres undefined) came in with an absorption maximum (in ClC(Cl)Cl) of 406 nm.

`CCC1=C(C)C2=Cc3c4ccccc4c4n3[B-](c3ccncc3)(Oc3ccccc3-4)[N+]2=C1C` (centres undefined): the absorption maximum (in CC#N) is given as 621 nm, the absorption maximum (in CCCCCC) stood at 625 nm, the absorption maximum (in Cc1ccccc1) turned out to be 629 nm and the absorption maximum (in ClCCl) was 627 nm.

With `c1ccc2c(c1)c1ccc3cccc4c3c1c2c1c2cccc3ccc5c6ccccc6c(c5c32)c41`, the absorption maximum (in ClCCl) is listed as 625 nm.

`Cc1cc2nc3c(=O)n(C)c(=O)n(C)c3nc2cc1C`: the absorption maximum (in CC#N) is 375 nm.

`COc1ccc(N(c2ccccc2)c2ccc3ccc4c(N(c5ccccc5)c5ccc(OC)cc5)ccc5ccc2c3c54)cc1` returned an absorption maximum (in ClCCl) of 432 nm.

`c1ccc(-c2ccc3c4ccc(-c5ccccc5)c5c(-c6ccccc6)ccc(c6ccc(-c7ccccc7)c2c36)c54)cc1` displayed an absorption maximum (in ClCCl) of 486 nm.

In turn, `COc1ccc(/C=C(\C)c2nc3ccccc3o2)cc1` displayed an absorption maximum (in C1CCCCC1) of 320 nm and an absorption maximum (in CO) of 325 nm.

Turning to `CCC1=C(C)C2=Cc3c4ccccc4c4n3[B-](c3cc[n+](C)cc3)(Oc3ccccc3-4)[N+]2=C1C=Cc1ccc(OC)cc1` (centres undefined), the absorption maximum is listed as 695 nm (in CO) and 703 nm (in CS(C)=O).

`CCCCn1c2ccccc2c2ccc3c4cc(-c5ccc(C(F)(F)F)cc5)ccc4n(CCCC)c3c21` gave an absorption maximum (in ClC(Cl)Cl) of 326 nm.

For `CCCCC(CC)COc1ccc2nc(-c3ccc(-c4ccc(N(C)C)cc4)s3)sc2c1` (centres undefined), the absorption maximum (in ClCCl) is listed as 402 nm.

Turning to `CCN(CC)c1ccc2cc(/C=C/C(O)=C/C(C)=O)c(=O)oc2c1`, the absorption maximum was found to be 456 nm (in CC#N); 456 nm (in CC(C)=O); 447 nm (in CCOC(C)=O); 458 nm (in CO); 470 nm (in CS(C)=O); 447 nm (in Cc1ccccc1). Besides, the absorption maximum by setting is: (in ClC(Cl)Cl) 455 nm; (in ClCCl) 456 nm.

For `Cc1cc(C)c(C2=C3C=C(/C=C/C(=O)OC(C)(C)C)C=[N+]3[B-](F)(F)n3cccc32)c(C)c1`, the absorption maximum (in ClCCl) was 538 nm.

As for `Nc1ccc2ccc(O)cc2c1`, where the note is “in O”, the absorption maximum stood at 332 nm.

`CC1=C(C2=C(C)C(C)=[N+]3C2=Cc2cc(C)c(C)n2[B-]3(F)F)C2=Cc3cc(C)c(C)n3[B-](F)(F)[N+]2=C1C` gave an absorption maximum (in ClCCl) of 557 nm.

For `c1ccc(Nc2nc(Nc3ccccc3)nc(Nc3ccc4ccc5cccc6ccc3c4c56)n2)cc1`, the absorption maximum is, setting by setting: (in CC#N) 342 nm; (in CCCCOCCCC) 342 nm; (in CO) 340 nm.

`CCCCCCn1c(=O)c2c3nc4ccccc4nc3c3c(=O)n(CCCCCC)c(=O)c3c2c1=O` displayed an absorption maximum (in ClCCl) of 404 nm.

In the case of `Cc1cc(C)c(B2c3cc(C(C)(C)C)cc4ccc5ccc6cc(C(C)(C)C)cc2c6c5c34)c(C)c1`, the absorption maximum (in C1CCCCC1) is given as 427 nm.

Under “in ClCCl”, `COc1ccc2cc(/C=C/C3=[O+][B-](F)(F)OC(/C=C/c4ccc5cc(OC)ccc5c4)=C3c3ccccc3)ccc2c1` came in with an absorption maximum of 526 nm.

`Cc1cc(C)c(B2c3cc(C)ccc3N3c4ccc(C)cc4B(c4c(C)cc(C)cc4C)c4cc(C)cc2c43)c(C)c1`: where the note is “in ClCCl”, the absorption maximum worked out at 457 nm.

For the setting “in ClCCl”, `C(=C\c1cc(/C=C/c2ccc(N(c3ccccc3)c3ccccc3)cc2)ncn1)/c1ccc(N(c2ccccc2)c2ccccc2)cc1` registered an absorption maximum of 427 nm.

On to `CN(C)c1ccc2cc3ccc(=[N+](C)C)cc-3oc2c1`, for which the absorption maximum reads like this: (in CCO) 547 nm; (in O) 548 nm.

In turn, `CC(C)(C)c1ccc2c(c1)c1cc(C(C)(C)C)cc3c1n2-c1cc(-c2cccc(F)c2)cc2c1B3c1cc(C(C)(C)C)cc3c4cc(C(C)(C)C)ccc4n-2c13` showed an absorption maximum (in Cc1ccccc1) of 467.1 nm.

As for `CCC1=C(C)c2cc3ccccc3c(=O)n2C1=O`, the absorption maximum turned out to be 369 nm (in CC#N); 366 nm (in CCCCCC); 370 nm (in CO); 373 nm (in CS(C)=O); 371 nm (in ClC(Cl)Cl).

`COc1ccc(OC)c(C2=C3C=CC(=[N+](C)C)C=C3[Si](C)(C)c3cc(N(C)C)ccc32)c1` came in with an absorption maximum (in O) of 651 nm.

Turning to `CC(O)CC1=N/C(=C\c2cccc(N(C)C)c2)C(=O)N1C` (centres undefined), the absorption maximum (in C1CCOC1) was found to be 356 nm, the absorption maximum (in CC#N) is recorded as 355 nm and the absorption maximum (in CCCCCC) amounted to 352 nm.

Molecule `COc1cc(/C=C/c2ncc(-c3ccncc3)o2)cc(OC)c1OC` registered an absorption maximum (in ClCCl) of 352 nm.

For the molecule `O=C([O-])c1c(Cl)c(Cl)c(Cl)c(Cl)c1-c1c2cc(I)c(=O)c(I)c-2oc2c(I)c([O-])c(I)cc12`, the absorption maximum by setting is: (in CC(C)O) 561 nm; (in CCO) 558 nm; (in CO) 556 nm; (in O) 548 nm.

On to `COc1ccc(C2=Cc3cc4ccccc4cc3P2(=O)c2ccccc2)cc1` (centres undefined), for which the absorption maximum (in ClCCl) is 395 nm.

In turn, `F[B-]1(F)n2c(cc3c2-c2ccccc2CC3)C(c2ccc(I)cc2)=C2C=C3CCc4ccccc4C3=[N+]21` gave an absorption maximum (in ClC(Cl)Cl) of 634 nm.

The molecule `CC1(C)C(/C=C/C=C/C=C/C=C2/N(CCC(=O)O)c3ccc4ccccc4c3C2(C)C)=[N+](CCC(=O)O)c2ccc3ccccc3c21` showed an absorption maximum (in CO) of 792 nm.

In turn, `CCCCCCOc1cc(/C=C/c2cc(OCCCCCC)c(/C=C/c3cc(OCCCCCC)c(/C=C4\C(=O)c5ccccc5C4=C(C#N)C#N)cc3OCCCCCC)cc2OCCCCCC)c(OCCCCCC)cc1/C=C1\C(=O)c2ccccc2C1=C(C#N)C#N` registered an absorption maximum (in ClCCl) of 611 nm.

`O=Cc1ccc(N(c2ccc(C=O)cc2)c2ccc(-c3ccc4c(c3)C(=O)c3ccccc3C4=O)cc2)cc1`: the absorption maximum is, setting by setting: (in C1CCOC1) 374 nm; (in CCCCCC) 368 nm; (in CCOC(C)=O) 371 nm; (in CCOCC) 369 nm; (in Cc1ccccc1) 376 nm; (in ClC(Cl)(Cl)Cl) 376 nm. In addition, the absorption maximum (in ClCCl) is recorded as 379 nm.
